Tests used:
[1] = target: T1, SOS1 (Homo sapiens, UniProt Q07889); experiment: SOS-catalyzed nucleotide exchange assay (HTRF, SOS1-mediated GTP loading of KRAS G12D); type: biochemical; details: GST-KRAS G12D, HIS-SOS1cat, IC50 class
T1 construct: adding equal amounts of HIS—SOS1cat (160 nM; Cytoskeleton, US); His (N); purchased Cytoskeleton, US
T1 sequence (Q07889 564-1049 limits assumed): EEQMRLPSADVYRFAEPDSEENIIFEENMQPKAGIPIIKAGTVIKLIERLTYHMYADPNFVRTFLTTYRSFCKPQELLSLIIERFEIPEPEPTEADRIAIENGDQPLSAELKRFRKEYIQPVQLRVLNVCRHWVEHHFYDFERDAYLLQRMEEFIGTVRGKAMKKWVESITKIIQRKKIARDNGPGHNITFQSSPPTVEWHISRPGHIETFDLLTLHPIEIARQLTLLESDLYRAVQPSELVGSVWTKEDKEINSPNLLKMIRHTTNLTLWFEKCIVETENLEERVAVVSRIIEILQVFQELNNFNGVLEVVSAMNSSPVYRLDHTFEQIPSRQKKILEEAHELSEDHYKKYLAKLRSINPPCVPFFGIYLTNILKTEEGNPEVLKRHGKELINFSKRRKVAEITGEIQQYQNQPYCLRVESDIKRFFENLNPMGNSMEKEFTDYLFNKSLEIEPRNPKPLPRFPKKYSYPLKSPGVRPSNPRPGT
Experimental: SOS1 activity was measured by SOS1-mediated GTP loading quantification of KRAS^G12D. GTP loaded KRAS^G12D was detected by HTRF (Homogeneous Time Resolved Fluorescence) using anti-GST terbium (Cisbio, France) as a donor and a fluorescence GTP analogue (EDA-GTP-DY-647P1, [DY-647P1 labeled 2′/3′-O-(2-aminoethyl-carbamoyl)guanosine-5′-triphosphate (Jena bioscience, Germany)]) as an acceptor.
Assay buffer was composed of 10 mM HEPES pH 7.4, 150 mM NaCl, 5 mM MgCl2, 1 mM DTT, 0.05% BSA Fraction V pH 7.0 (Sigma) and 0.0025% (v/v) Igepal (Sigma). KRAS^G12D working solution was prepared by adding equal amounts of GST-KRAS^G12D (100 nM) and anti-GST-terbium (2 nM; Cisbio, France) to the assay buffer and culturing on ice for 10 minutes. SOS1cat working solution was prepared by adding equal amounts of HIS—SOS1cat (160 nM; Cytoskeleton, US) and EDA-GTP-DY-647P1 (200 nM; Jena bioscience, Germany) to the assay buffer. Control solution was prepared by adding equal volumes of EDA-GTP-DY-647P1 and the assay buffer for normalization control to exclude GEF-independent GTP loading and background signals. In order to induce a reaction, 5 μL of the SOS1cat working solution or the control solution was injected into each well. 5 μL of a compound having various concentrations from 128 pM to 10 μM was added to wells containing the SOS1cat working solution and incubated at room temperature for 10 minutes to bind to SOS1.
10 μL of the KRAS^G12D solution was added to each well and incubated for 30 minutes at room temperature while shaking. HTRF was measured using a Thermo Varioskan (excitation 334 nm, emission 665 nm). The IC50 of each inhibitor was analyzed using Graphad Prism.

[2] = target: T2, KRAS^G12C::SOS1 (Homo sapiens, UniProt Q07889); experiment: KRAS G12C::SOS1 protein-protein interaction (PPI) inhibition assay (HTRF binding kit); details: max inhibitor concentration 3 μM, three replicates, IC50 class
T2 construct: purchased CISBIO, FRANCE 64KRASG12PEH
T2 sequence (Q07889 1-1333): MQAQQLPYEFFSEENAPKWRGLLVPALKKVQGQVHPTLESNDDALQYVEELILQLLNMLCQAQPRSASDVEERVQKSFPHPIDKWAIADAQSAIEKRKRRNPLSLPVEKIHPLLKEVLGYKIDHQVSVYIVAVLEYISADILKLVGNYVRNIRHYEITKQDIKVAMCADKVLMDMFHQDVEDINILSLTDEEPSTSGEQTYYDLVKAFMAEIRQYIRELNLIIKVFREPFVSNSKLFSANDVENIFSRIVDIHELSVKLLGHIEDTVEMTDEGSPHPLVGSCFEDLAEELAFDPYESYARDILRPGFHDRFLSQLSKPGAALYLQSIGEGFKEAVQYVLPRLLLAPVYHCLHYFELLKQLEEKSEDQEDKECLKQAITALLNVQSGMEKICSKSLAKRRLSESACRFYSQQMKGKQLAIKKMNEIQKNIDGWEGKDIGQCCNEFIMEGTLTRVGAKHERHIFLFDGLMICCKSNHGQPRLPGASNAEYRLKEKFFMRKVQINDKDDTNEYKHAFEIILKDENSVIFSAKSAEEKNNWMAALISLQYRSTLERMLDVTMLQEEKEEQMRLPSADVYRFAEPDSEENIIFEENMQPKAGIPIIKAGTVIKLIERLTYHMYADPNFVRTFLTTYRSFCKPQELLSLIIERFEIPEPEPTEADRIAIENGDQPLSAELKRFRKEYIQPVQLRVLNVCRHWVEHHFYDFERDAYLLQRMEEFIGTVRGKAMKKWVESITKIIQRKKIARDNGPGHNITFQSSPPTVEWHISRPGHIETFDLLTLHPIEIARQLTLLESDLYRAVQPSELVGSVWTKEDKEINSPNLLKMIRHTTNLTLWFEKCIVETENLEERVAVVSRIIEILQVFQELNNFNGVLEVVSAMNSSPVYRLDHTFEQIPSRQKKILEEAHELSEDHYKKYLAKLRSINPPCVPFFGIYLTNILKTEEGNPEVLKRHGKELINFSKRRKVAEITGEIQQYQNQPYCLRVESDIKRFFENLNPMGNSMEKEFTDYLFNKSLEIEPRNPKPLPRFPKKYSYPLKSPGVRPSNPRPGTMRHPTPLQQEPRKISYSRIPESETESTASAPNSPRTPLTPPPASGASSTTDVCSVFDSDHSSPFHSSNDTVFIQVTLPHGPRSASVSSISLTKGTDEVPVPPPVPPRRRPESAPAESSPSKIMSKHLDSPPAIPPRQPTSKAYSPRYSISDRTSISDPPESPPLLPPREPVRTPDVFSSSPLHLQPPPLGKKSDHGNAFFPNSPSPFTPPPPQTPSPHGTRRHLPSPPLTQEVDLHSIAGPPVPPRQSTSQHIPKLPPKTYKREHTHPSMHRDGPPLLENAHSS
Experimental: Protein-protein interaction between SOS1 and KRAS^G12C was detected using KRAS G12C/SOS1 binding kit from CISBIO (64KRASG12PEH, CISBIO, FRANCE) according to the manufacturer's assay method. Briefly, the maximum concentration of an inhibitor sample was set to be 3 μM, and the inhibitor sample was diluted 7 times by 1/3, and samples having a total of 8 concentrations were prepared. In HTRF (Homogeneous Time-Resolved Fluorescence) exclusive 96-well low-volume white plate (66PL96005, CISBIO, FRANCE), 2 μL of an inhibitor sample prepared for each concentration, 5 μL of a mixed solution of Tag1 labeled KRAS^G12C protein and GTP diluted with the dilution solution provided by the manufacturer, and 5 μL of Tag2 labeled SOS1 protein were mixed, and added with 8 μL of a diluted solution where anti-Tag1 KRAS^G12CXL665 (HTRF acceptor) labeled antibody and anti-Tag2 SOS1 Terbium cryptate (HTRF donor) labeled antibody were mixed in an equal ratio and cultured at room temperature for 2 hours.

| IC50 [1] | IC50 [2] | Structure (SMILES) |
| --- | --- | --- |
| 1000 to 10000 nM |  | CC(=O)N1CCC(n2nc(C(=O)N[C@H](C)c3cc(N)cc(C(F)(F)F)c3)ccc2=O)CC1 [Example 118, 1-(1-acetylpiperidin-4-yl)-N-[(1R)-1-[3-amino-5-(trifluoromethyl)phenyl]ethyl]-6-oxo-1,6-dihydropyridazine-3-carboxamide] |
| 1000 to 10000 nM | < 1000 nM | C[C@@H](NC(=O)c1ccc(=O)n(-c2ccc(OC(F)(F)F)cc2)n1)c1cc(N)cc(C(F)(F)F)c1 [Example 154] |

Reference: patent publication US20240400518A1, “SOS1 INHIBITOR AND USE THEREOF” (KANAPH THERAPEUTICS INC., priority 2021, published 2024)
